ChEMBL document CHEMBL1201862, “PubChem BioAssay data set” (2004)
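1) Cells in 96-well plates. 2) Compound, 48 h, 5 concentrations. 3) Linear interpolation between surrounding doses. 4) Unreached endpoint = highest concentration. Here, GI50 denotes the concentration required for 50% inhibition of growth.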 Active and inactive are the calls of the source. Rule as the data show it: active = GI50 up to about 1.1 µM and inactive = higher.

Key:
Test in all cases: NCI tumour cell line growth inhibition, 48 h
OVCAR-8 = test system: OVCAR-8
SK-MEL-2 = test system: SK-MEL-2
HCC 2998 = test system: HCC 2998
UO-31 = test system: UO-31
MOLT-4 = test system: MOLT-4
OVCAR-3 = test system: OVCAR-3
NCI-H23 = test system: NCI-H23
SK-MEL-28 = test system: SK-MEL-28
HCT-15 = test system: HCT-15
UACC-62 = test system: UACC-62
CCRF-CEM = test system: CCRF-CEM
KM12 = test system: KM12
OVCAR-4 = test system: OVCAR-4
SF-295 = test system: SF-295
SN12C = test system: SN12C
SF-539 = test system: SF-539
COLO 205 = test system: COLO 205
K562 = test system: K562
EKVX = test system: EKVX
NCI-H460 = test system: NCI-H460

Structure (SMILES)	GI50 (OVCAR-8)	GI50 (SK-MEL-2)	GI50 (HCC 2998)	GI50 (UO-31)	GI50 (MOLT-4)	GI50 (OVCAR-3)	GI50 (NCI-H23)	GI50 (SK-MEL-28)	GI50 (HCT-15) [µM]	GI50 (UACC-62)	GI50 (CCRF-CEM)	GI50 (KM12)	GI50 (OVCAR-4)	GI50 (SF-295)	GI50 (SN12C)	GI50 (SF-539)	GI50 (COLO 205)	GI50 (K562)	GI50 (EKVX)	GI50 (NCI-H460)
O=C1c2ccccc2-c2ccc(N(Cc3ccc(Br)cc3)Cc3ccc(Br)cc3)cc21	> 100 µM (inactive)	> 100 µM (inactive)	> 100 µM (inactive)	> 100 µM (inactive)	36.2 µM (inactive)	> 100 µM (inactive)	> 100 µM (inactive)	> 100 µM (inactive)	> 100	> 100 µM (inactive)	11.1 µM (inactive)	> 100 µM (inactive)	> 100 µM (inactive)	> 100 µM (inactive)	> 100 µM (inactive)	> 100 µM (inactive)	> 100 µM (inactive)	> 100 µM (inactive)	> 100 µM (inactive)	9.82 µM (inactive)
O=C1C=CC2OC(c3ccccc3)C(O)C2O1 (stereo not given)	3.62 µM (inactive)	2.75 µM (inactive)	2.47 µM (inactive)	10.2 µM (inactive)	1.43 µM (inactive)	3.5 µM (inactive)	3.07 µM (inactive)	4.49 µM (inactive)	3.42	4.94 µM (inactive)	1.15 µM (inactive)	6.76 µM (inactive)	7.87 µM (inactive)	7.71 µM (inactive)	7.03 µM (inactive)	3.07 µM (inactive)	2.58 µM (inactive)	3.37 µM (inactive)	4.91 µM (inactive)	4.7 µM (inactive)
CSCSCC(CO)NC(=O)/C=C\c1c(C)[nH]c(=O)[nH]c1=O (stereo not given)	10 µM (inactive)	14.2 µM (inactive)	5.57 µM (inactive)	14.9 µM (inactive)	7.74 µM (inactive)	1.79 µM (inactive)	17.7 µM (inactive)	28.6 µM (inactive)	17.9	22.4 µM (inactive)	2.27 µM (inactive)	12.7 µM (inactive)	1.23 µM (inactive)	76.6 µM (inactive)	8.15 µM (inactive)	32.9 µM (inactive)	8.79 µM (inactive)	5.2 µM (inactive)	16.1 µM (inactive)	12.2 µM (inactive)
COC(=O)[C@@H](O)[C@](O)(CCC(C)C)C(=O)O[C@@H]1C(OC)=C[C@]23CCCN2CCc2cc4c(cc2[C@H]13)OCO4	1.88 µM (inactive)	2.19 µM (inactive)	0.233 µM (active)	1.5 µM (inactive)	0.32 µM (active)	1.24 µM (inactive)	1.55 µM (inactive)	0.518 µM (active)	1.68	3.9 µM (inactive)	1.51 µM (inactive)	1.26 µM (inactive)	1.06 µM (active)	1.53 µM (inactive)	2.36 µM (inactive)	0.673 µM (active)	1.29 µM (inactive)	0.659 µM (active)	1.71 µM (inactive)	0.325 µM (active)
NC(=O)C(=O)N/N=C1/c2ccccc2CC1C1(O)C(=O)Nc2c(Cl)cc(Cl)cc21 (stereo not given)	> 100 µM (inactive)	> 100 µM (inactive)	> 100 µM (inactive)	> 100 µM (inactive)	> 100 µM (inactive)	> 100 µM (inactive)	> 100 µM (inactive)	> 100 µM (inactive)	> 100	> 100 µM (inactive)	61.5 µM (inactive)	> 100 µM (inactive)	> 100 µM (inactive)	> 100 µM (inactive)	> 100 µM (inactive)	> 100 µM (inactive)	> 100 µM (inactive)	88.7 µM (inactive)	> 100 µM (inactive)	> 100 µM (inactive)
N/C(=N\O)N/N=C\c1ccccc1O	3.2 µM (inactive)	21 µM (inactive)	3.24 µM (inactive)	7.98 µM (inactive)	7.13 µM (inactive)	10.4 µM (inactive)	7.6 µM (inactive)	19.3 µM (inactive)	3.48	5.64 µM (inactive)	5.6 µM (inactive)	5.02 µM (inactive)	4.06 µM (inactive)	4 µM (inactive)	11.6 µM (inactive)	14.5 µM (inactive)	5.81 µM (inactive)	3.99 µM (inactive)	11.2 µM (inactive)	3.29 µM (inactive)
O=C(O)c1ccccc1/C=N\N(CCO)C1=NCCN1	> 100 µM (inactive)	> 100 µM (inactive)	> 100 µM (inactive)	> 100 µM (inactive)	> 100 µM (inactive)	> 100 µM (inactive)	> 100 µM (inactive)	> 100 µM (inactive)	> 100	> 100 µM (inactive)	> 100 µM (inactive)	> 100 µM (inactive)	> 100 µM (inactive)	> 100 µM (inactive)	> 100 µM (inactive)	> 100 µM (inactive)	> 100 µM (inactive)	> 100 µM (inactive)	> 100 µM (inactive)	> 100 µM (inactive)
CC(=O)OC1C=C(C=O)C(O)(C=O)C2(C)CCCC(C)(C)C12 (stereo not given)	1.24 µM (inactive)	2.86 µM (inactive)	2.61 µM (inactive)	2.32 µM (inactive)	0.37 µM (active)	0.693 µM (active)	1.44 µM (inactive)	1.05 µM (active)	0.6	2.76 µM (inactive)	0.238 µM (active)	2.31 µM (inactive)	1.33 µM (inactive)	3.07 µM (inactive)	2.52 µM (inactive)	2.4 µM (inactive)	0.859 µM (active)	0.809 µM (active)	2.65 µM (inactive)	1.64 µM (inactive)
C=C1C(=O)O[C@H]2C/C(C)=C/CC[C@@]3(C)O[C@](C)(CC[C@@H]3I)[C@@H](I)C[C@@H]12	1.88 µM (inactive)	9.02 µM (inactive)	4.09 µM (inactive)	5.66 µM (inactive)	0.925 µM (active)	3.21 µM (inactive)	8.69 µM (inactive)	7.01 µM (inactive)	2.4	4.16 µM (inactive)	0.592 µM (active)	3.61 µM (inactive)	6.14 µM (inactive)	6.84 µM (inactive)	4.2 µM (inactive)	6.4 µM (inactive)	3.39 µM (inactive)	1.95 µM (inactive)	7.16 µM (inactive)	6.38 µM (inactive)
CC(C)C1=CC2=CC[C@@H]3[C@](C)(CCC[C@@]3(C)C(=O)O)[C@H]2CC1 [ABIETIC ACID]	> 56.9 µM (inactive)	> 50.9 µM (inactive)	> 80 µM (inactive)	43.7 µM (inactive)	40.2 µM (inactive)	35.7 µM (inactive)	45.3 µM (inactive)	> 59.3 µM (inactive)	43.4	36.3 µM (inactive)	42.9 µM (inactive)	37.8 µM (inactive)	59.6 µM (inactive)	37.8 µM (inactive)	62.4 µM (inactive)	> 70.8 µM (inactive)	40.3 µM (inactive)	> 53 µM (inactive)	42.6 µM (inactive)	47 µM (inactive)
CC(C)=CCc1c(O)ccc2ccc(=O)oc12 [OSTHENOL]	53 µM (inactive)	45.7 µM (inactive)	45.8 µM (inactive)	29.4 µM (inactive)	26.9 µM (inactive)	60.1 µM (inactive)	55.5 µM (inactive)	49.4 µM (inactive)	60.1	44.6 µM (inactive)	33.9 µM (inactive)	> 75.5 µM (inactive)	37.8 µM (inactive)	45.6 µM (inactive)	> 91.8 µM (inactive)	24 µM (inactive)	> 100 µM (inactive)	37.6 µM (inactive)	51.6 µM (inactive)	> 73.5 µM (inactive)
